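Five compound concentrations were applied to cells in 96-well plates for 48 hours; endpoints were derived by simple linear interpolation of the resulting dose-response curve. Abbreviation: GI50, concentration required for 50% inhibition of growth. At the TGI there is no net growth.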
How the values were obtained:
Assay in all cases: NCI anticancer screen, dose series, 48 h
[1] = system: 786-0 renal
[2] = system: A498 renal
[3] = system: A549 NSCLC
[4] = system: ACHN renal
[5] = system: BT-549 breast
[6] = system: CAKI-1 renal
[7] = system: CCRF-CEM leukemia
[8] = system: COLO 205 colon
[9] = system: DU-145 prostate
[10] = system: EKVX NSCLC
[11] = system: HCC-2998 colon
[12] = system: HCT-116 colon
[13] = system: HCT-15 colon
[14] = system: HL-60(TB) leukemia
[15] = system: HOP-62 NSCLC
[16] = system: HOP-92 NSCLC
[17] = system: HS 578T breast
[18] = system: HT29 colon
[19] = system: IGROV1 ovarian
[20] = system: K-562 leukemia
[21] = system: KM12 colon
[22] = system: LOX IMVI melanoma
[23] = system: M14 melanoma
[24] = system: MALME-3M melanoma
[25] = system: MDA-MB-231 breast
[26] = system: MDA-MB-435
[27] = system: MOLT-4 leukemia
[28] = system: NCI-H226 lung
[29] = system: NCI-H23 lung
[30] = system: NCI-H460 lung
[31] = system: NCI-H522 lung
[32] = system: NCI/ADR-RES ovarian
[33] = system: OVCAR-3 ovarian
[34] = system: OVCAR-4 ovarian
[35] = system: OVCAR-5 ovarian
[36] = system: OVCAR-8 ovarian
[37] = system: PC-3 prostate
[38] = system: RPMI-8226 leukemia
[39] = system: RXF 393 renal
[40] = system: SF-268 CNS
[41] = system: SF-295 CNS
[42] = system: SF-539 CNS
[43] = system: SK-MEL-2 melanoma
[44] = system: SK-MEL-28 melanoma
[45] = system: SK-MEL-5 melanoma
[46] = system: SK-OV-3 ovarian
[47] = system: SN12C renal
[48] = system: SNB-19 CNS
[49] = system: SNB-75 CNS
[50] = system: SW-620 colon
[51] = system: T-47D breast
[52] = system: TK-10 renal
[53] = system: U251 CNS
[54] = system: UACC-257 melanoma
[55] = system: UACC-62 melanoma
[56] = system: UO-31 renal
[57] = system: MCF7 breast
[58] = system: SR leukemia

## COc1cc(Nc2ncccc2C(=O)NCc2cn(Cc3cccc(Oc4ccccc4)c3)nn2)cc(OC)c1
[1]
  GI50: 6.73 µM
  TGI: > 100 µM
[2]
  GI50: 4.18 µM
  TGI: > 100 µM
[3]
  GI50: 4.02 µM
  TGI: > 100 µM
[4]
  GI50: 6.9 µM
  TGI: > 100 µM
[5]
  GI50: 7.16 µM
  TGI: > 100 µM
[6]
  GI50: 6.3 µM
  TGI: > 100 µM
[7]
  GI50: 4.19 µM
  TGI: > 100 µM
[8]
  GI50: 4.12 µM
  TGI: > 100 µM
[9]
  GI50: 10.5 µM
  TGI: > 100 µM
[10]
  GI50: 6.33 µM
  TGI: > 100 µM
[11]
  GI50: 9.6 µM
  TGI: > 100 µM
[12]
  GI50: 4.34 µM
  TGI: > 100 µM
[13]
  GI50: 3.89 µM
  TGI: > 100 µM
[14]
  GI50: 3.97 µM
  TGI: > 100 µM
[15]
  GI50: 6.31 µM
  TGI: > 100 µM
[16]
  GI50: 46.7 µM
  TGI: > 100 µM
[17]
  GI50: > 100 µM
  TGI: > 100 µM
[18]
  GI50: 3.88 µM
  TGI: > 100 µM
[19]
  GI50: > 100 µM
  TGI: > 100 µM
[20]
  GI50: 5.05 µM
  TGI: > 100 µM
[21]
  GI50: 3.84 µM
  TGI: > 100 µM
[22]
  GI50: 5.1 µM
  TGI: > 100 µM
[23]
  GI50: 4.8 µM
  TGI: > 100 µM
[24]
  GI50: 5.81 µM
  TGI: > 100 µM
[25]
  GI50: 5.33 µM
  TGI: > 100 µM
[26]
  GI50: 2.23 µM
  TGI: 5.43 µM
[27]
  GI50: 4.86 µM
  TGI: > 100 µM
[28]
  GI50: 9.82 µM
  TGI: > 100 µM
[29]
  GI50: 6.22 µM
  TGI: > 100 µM
[30]
  GI50: 3.98 µM
  TGI: > 100 µM
[31]
  GI50: 3.31 µM
  TGI: > 100 µM
[32]
  GI50: 3.21 µM
  TGI: > 100 µM
[33]
  GI50: 3.69 µM
  TGI: > 100 µM
[34]
  GI50: 5.42 µM
  TGI: > 100 µM
[35]
  GI50: > 100 µM
  TGI: > 100 µM
[36]
  GI50: 5.96 µM
  TGI: > 100 µM
[37]
  GI50: 4.74 µM
  TGI: > 100 µM
[38]
  GI50: 5.25 µM
  TGI: > 100 µM
[39]
  GI50: 3.77 µM
  TGI: > 100 µM
[40]
  GI50: 5.43 µM
  TGI: > 100 µM
[41]
  GI50: 4.06 µM
  TGI: > 100 µM
[42]
  GI50: 4.39 µM
  TGI: > 100 µM
[43]
  GI50: 6.68 µM
  TGI: > 100 µM
[44]
  GI50: 4.14 µM
  TGI: > 100 µM
[45]
  GI50: 3.11 µM
  TGI: > 100 µM
[46]
  GI50: 4.33 µM
  TGI: > 100 µM
[47]
  GI50: 7.41 µM
  TGI: > 100 µM
[48]
  GI50: 9.64 µM
  TGI: > 100 µM
[49]
  GI50: 3.98 µM
  TGI: > 100 µM
[50]
  GI50: 3.88 µM
  TGI: > 100 µM
[51]
  GI50: 4.58 µM
  TGI: > 100 µM
[52]
  GI50: 51.6 µM
  TGI: > 100 µM
[53]
  GI50: 4.58 µM
  TGI: > 100 µM
[54]
  GI50: 4.86 µM
  TGI: > 100 µM
[55]
  GI50: 3.68 µM
  TGI: > 100 µM
[56]
  GI50: 5.25 µM
  TGI: > 100 µM

## c1ccc(N=C(N2CCCC2)N(CCN2CCCC2)c2ccccc2)cc1
[1]
  TGI: > 100 µM
[3]
  TGI: > 100 µM
[4]
  TGI: > 100 µM
[5]
  TGI: 84.5 µM
[6]
  TGI: > 100 µM
[7]
  TGI: > 100 µM
[8]
  TGI: 75.4 µM
[10]
  TGI: > 100 µM
[12]
  TGI: > 100 µM
[13]
  TGI: > 100 µM
[14]
  TGI: > 100 µM
[15]
  TGI: > 100 µM
[16]
  TGI: > 100 µM
[17]
  TGI: > 100 µM
[18]
  TGI: 14.8 µM
[19]
  TGI: > 100 µM
[20]
  TGI: > 100 µM
[21]
  TGI: 41.7 µM
[22]
  TGI: > 100 µM
[23]
  TGI: 27 µM
[24]
  TGI: > 100 µM
[57]
  TGI: > 100 µM
[26]
  TGI: > 100 µM
[27]
  TGI: > 100 µM
[28]
  TGI: > 100 µM
[29]
  TGI: > 100 µM
[30]
  TGI: 75.8 µM
[31]
  TGI: > 100 µM
[32]
  TGI: > 100 µM
[33]
  TGI: > 100 µM
[34]
  TGI: > 100 µM
[35]
  TGI: > 100 µM
[36]
  TGI: > 100 µM
[37]
  TGI: > 100 µM
[38]
  TGI: > 100 µM
[41]
  TGI: 35.6 µM
[43]
  TGI: > 100 µM
[44]
  TGI: > 100 µM
[45]
  TGI: 24.5 µM
[46]
  TGI: > 100 µM
[47]
  TGI: > 100 µM
[48]
  TGI: > 100 µM
[49]
  TGI: 78 µM
[58]
  TGI: > 100 µM
[50]
  TGI: > 100 µM
[51]
  TGI: > 100 µM
[52]
  TGI: > 100 µM
[53]
  TGI: > 100 µM
[54]
  TGI: 67.6 µM
[55]
  TGI: > 100 µM
[56]
  TGI: > 100 µM
